Source: patent US20230000842A1, “METHODS OF TREATING CARTILAGE DISORDERS THROUGH INHIBITION OF CLK AND DYRK” (SAMUMED, LLC, priority 2019, published 2023)

Key:
[1] = target: CLK2 kinase (Homo sapiens, UniProt P49760); test: CLK2 kinase activity assay (Z-lyte FRET); type: biochemical; conditions: Z-lyte Ser/Thr 6 peptide, 60 μM ATP, 1 h at room temperature;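 note: FRET read-out as coumarin to fluorescein emission ratio, unphosphorylated peptide as 0% and phosphorylated peptide as 100% controls, duplicate reactions, non-linear regression fit of dose-response curves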
Sequence of CLK2 kinase (P49760 whole entry): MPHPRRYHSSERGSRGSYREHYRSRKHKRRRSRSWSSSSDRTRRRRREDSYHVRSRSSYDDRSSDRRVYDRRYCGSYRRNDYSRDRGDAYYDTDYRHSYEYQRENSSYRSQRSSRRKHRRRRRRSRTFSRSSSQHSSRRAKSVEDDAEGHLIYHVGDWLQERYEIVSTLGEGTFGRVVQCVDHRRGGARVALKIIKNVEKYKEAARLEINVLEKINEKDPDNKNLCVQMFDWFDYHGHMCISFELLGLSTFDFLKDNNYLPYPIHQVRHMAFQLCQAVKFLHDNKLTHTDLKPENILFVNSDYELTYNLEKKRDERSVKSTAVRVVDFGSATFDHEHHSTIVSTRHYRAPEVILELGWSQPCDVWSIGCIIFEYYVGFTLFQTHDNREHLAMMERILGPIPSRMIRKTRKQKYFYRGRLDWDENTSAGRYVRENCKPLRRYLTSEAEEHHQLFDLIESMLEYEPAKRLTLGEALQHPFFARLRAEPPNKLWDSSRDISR

[2] = target: CLK3 kinase (Homo sapiens, UniProt P49761); test: CLK3 kinase activity assay (Z-lyte FRET); type: biochemical; conditions: Z-lyte Ser/Thr 18 peptide, 156 μM ATP, 1 h at room temperature;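 note: kinase activity read as coumarin/fluorescein emission ratio by FRET, unphosphorylated peptide as 0% and phosphorylated peptide as 100% control, values from non-linear regression of dose-response curves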
Sequence of CLK3 kinase (P49761 whole entry): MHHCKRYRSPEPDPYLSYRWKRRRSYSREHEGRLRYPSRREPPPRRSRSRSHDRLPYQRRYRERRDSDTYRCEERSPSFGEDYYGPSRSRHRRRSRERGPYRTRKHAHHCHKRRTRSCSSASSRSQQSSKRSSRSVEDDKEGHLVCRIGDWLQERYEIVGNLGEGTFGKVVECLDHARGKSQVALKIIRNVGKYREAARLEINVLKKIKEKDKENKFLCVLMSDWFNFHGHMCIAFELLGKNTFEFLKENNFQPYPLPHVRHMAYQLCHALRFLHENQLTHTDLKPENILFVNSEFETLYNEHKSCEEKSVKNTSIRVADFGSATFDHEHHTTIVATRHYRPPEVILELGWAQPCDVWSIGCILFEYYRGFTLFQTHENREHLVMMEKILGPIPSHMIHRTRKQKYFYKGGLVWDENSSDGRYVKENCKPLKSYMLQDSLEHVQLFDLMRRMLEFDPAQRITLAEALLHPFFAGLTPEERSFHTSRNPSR

[3] = test system: primary human mesenchymal stem cells (hMSCs); test: Chondrogenesis screening using primary human mesenchymal stem cells; type: cell-based; conditions: Homo sapiens, Mesenchymal stem cells, hMSC chondrogenesis; for EC50: concentration required to induce 50% levels of chondrogenesis with TGF-β3 as positive control, read-out: Conc (nM) of 50% TGF-β3 activity; for Emax: maximum activity relative to TGF-β3 (10 ng/mL) positive control, read-out: Max. Activity as % TGF-β3 activity
In short: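 Derived values are EC50 for 50% chondrogenesis, maximal activity and the dose giving it. These come from nodule area in passage 3–6 primary hMSCs, expressed as fold change over the mean of 3 same-plate DMSO wells, 2–3 replicates per concentration. TGF-β3 served as positive control.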

[4] = test system: Wnt pathway activity (SW480 colon carcinoma cells stably expressing the Sp5-Luc reporter); test: Wnt pathway activity screening assay (Sp5-Luc reporter gene assay); conditions: Homo sapiens, SW480, Table 4; SW480 cells stably expressing Sp5-Luc reporter, 10-point dose-response from 10 μM, 36 to 48 hours

Structure (SMILES) | EC50 [1] | EC50 [2] | EC50 [3] | EC50 [4] | Emax [3]
c1cncc(-c2cc3c(-c4nc5ccccc5[nH]4)n[nH]c3cn2)c1 [compound 200] | 22 nM | 209 nM | 30 nM | 20.1 nM | 80.5%
c1cncc(-c2ccc3[nH]nc(-c4nc5cnccc5[nH]4)c3n2)c1 [compound 201] | 15 nM | 2270 nM | 30 nM | > 10000 nM | 54.8%
CC(C)(C)CC(=O)Nc1cncc(-c2ccc3[nH]nc(-c4nc5ccncc5[nH]4)c3n2)c1 [compound 203] | 11 nM | 558 nM | 10 nM | > 10000 nM | 54.1%
CN1CCN(c2nccc3[nH]c(-c4n[nH]c5ccc(-c6cncc(N)c6)nc45)nc23)CC1 [compound 214] | 2 nM | 344 nM | 100 nM | > 10000 nM | 135%
CN1CCN(c2ccnc3[nH]c(-c4n[nH]c5ccc(-c6cncc(N)c6)nc45)nc23)CC1 [compound 216] | 2 nM | 843 nM |  | > 10000 nM | 46.9%
Cc1cn(-c2nccc3[nH]c(-c4n[nH]c5ccc(-c6cncc(NC(=O)C(C)(C)C)c6)nc45)nc23)cn1 [compound 221] | 3 nM | 188 nM | 30 nM | > 10000 nM | 69.7%
Cc1cn(-c2ccnc3[nH]c(-c4n[nH]c5ccc(-c6cncc(NC(=O)C(C)(C)C)c6)nc45)nc23)cn1 [compound 223] | 3 nM | 123 nM | 10 nM | > 10000 nM | 70.2%
Cc1cn(-c2nccc3[nH]c(-c4n[nH]c5ccc(-c6cncc(NC(=O)CC(C)C)c6)nc45)nc23)cn1 [compound 226] | 4 nM | 116 nM | 30 nM | 2900 nM | 69.3%
CCCC(=O)Nc1cncc(-c2cnc3[nH]nc(-c4nc5c(-c6ccoc6)cccc5[nH]4)c3c2)c1 [compound 230] | 4 nM | 87 nM | 100 nM | 63 nM | 111%
CCCCC(=O)Nc1cncc(-c2ccc3[nH]nc(-c4nc5c(-c6ccoc6)cncc5[nH]4)c3n2)c1 [compound 231] | 3 nM | 361 nM | 10 nM | > 10000 nM | 73.6%
CC(C)(C)C(=O)Nc1cncc(-c2cnc3[nH]nc(-c4nc5c(-c6ccoc6)cncc5[nH]4)c3c2)c1 [compound 232] | 5 nM | 143 nM | 30 nM | 70 nM | 144%
CC(C)CC(=O)Nc1cncc(-c2cc3c(-c4nc5c(-c6ccoc6)cccc5[nH]4)n[nH]c3cn2)c1 [compound 233] | 8 nM | 521 nM |  | 55.3 nM | 58%
O=C(Nc1cncc(-c2cnc3[nH]nc(-c4nc5c(-c6ccoc6)cncc5[nH]4)c3c2)c1)c1ccccc1 [compound 235] | 8 nM | 2630 nM | 100 nM | 51 nM | 110%
CC(C)Nc1cncc(-c2cnc3[nH]nc(-c4nc5c(-c6ccoc6)nccc5[nH]4)c3c2)c1 [compound 237] | 7 nM | 134 nM | 30 nM | 52.6 nM | 72%
CC(C)Nc1cncc(-c2ccc3[nH]nc(-c4nc5c(-c6ccoc6)nccc5[nH]4)c3n2)c1 [compound 238] | 2 nM | 230 nM | 30 nM | 297 nM | 76.2%
CC(C)Nc1cncc(-c2ccc3[nH]nc(-c4nc5c(-c6ccoc6)cncc5[nH]4)c3n2)c1 [compound 239] | 2 nM | 87 nM | 30 nM | 597 nM | 75.3%
CC(C)Nc1cncc(-c2ccc3[nH]nc(-c4nc5c(-c6ccoc6)ccnc5[nH]4)c3n2)c1 [compound 240] | 2 nM | 113 nM | 100 nM | 298 nM | 64.2%
Cc1ccncc1-c1ccc2[nH]nc(-c3nc4c(-c5ccsc5)nccc4[nH]3)c2c1 [compound 242] | 15 nM | 76 nM | 10 nM | 18.9 nM | 156%
CCC(=O)Nc1cncc(-c2cnc3[nH]nc(-c4nc5c(-c6ccsc6)cccc5[nH]4)c3c2)c1 [compound 243] | 5 nM | 62 nM | 100 nM | 10 nM | 167%

Second part, led by results:

EC50 [1] | EC50 [2] | EC50 [3] | EC50 [4] | Structure (SMILES) | Emax [3]
11 nM | 984 nM | 10 nM | 999 nM | O=C(Nc1cncc(-c2ccc3[nH]nc(-c4nc5c(-c6ccncc6)ccnc5[nH]4)c3n2)c1)C1CCCCC1 [compound 198] | 68.6%
2 nM | 65 nM | 100 nM | 21 nM | CC(C)(C)CC(=O)Nc1cncc(-c2ccc3[nH]nc(-c4nc5ccncc5[nH]4)c3c2)c1 [compound 202] | 152%
27 nM | 206 nM |  | 8 nM | O=C(Nc1cncc(-c2ccc3[nH]nc(-c4nc5ccncc5[nH]4)c3c2)c1)C1CC1 [compound 204] | 93.8%
12 nM | 213 nM | 900 nM | > 10000 nM | CCC(=O)Nc1cncc(-c2ccc3[nH]nc(-c4nc5c(N6CCCCC6)cncc5[nH]4)c3n2)c1 [compound 206] | 69.8%
3 nM | 1290 nM |  | > 10000 nM | CCC(=O)Nc1cncc(-c2ccc3[nH]nc(-c4nc5c(N6CCCCC6)ccnc5[nH]4)c3n2)c1 [compound 207] | 38.3%
11 nM | 94 nM | 100 nM | 41 nM | CC(C)(C)C(=O)Nc1cncc(-c2ccc3[nH]nc(-c4nc5c(N6CCCCC6)cncc5[nH]4)c3c2)c1 [compound 209] | 114%
7 nM | 54 nM | 30 nM | 39 nM | O=C(Nc1cncc(-c2ccc3[nH]nc(-c4nc5c(N6CCCCC6)cncc5[nH]4)c3c2)c1)C1CCC1 [compound 210] | 106%
8 nM | 107 nM |  | 20 nM | FC1(F)CCN(Cc2cncc(-c3ccc4[nH]nc(-c5nc6c(N7CCCCC7)cncc6[nH]5)c4c3)c2)C1 [compound 211] | 80.1%
5 nM | 89 nM | 10 nM | 116 nM | FC1(F)CCN(Cc2cncc(-c3cc4c(-c5nc6c(N7CCCCC7)cncc6[nH]5)n[nH]c4cn3)c2)C1 [compound 212] | 100%
1 nM | 51 nM |  | 53 nM | CN1CCN(c2cncc3[nH]c(-c4n[nH]c5ccc(-c6cccnc6)cc45)nc23)CC1 [compound 213] | 80.6%
5 nM | 500 nM | 30 nM | > 10000 nM | CN1CCN(c2cncc3[nH]c(-c4n[nH]c5ccc(-c6cncc(N)c6)nc45)nc23)CC1 [compound 215] | 64.6%
1 nM | 32 nM |  | 83 nM | CN1CCN(c2cncc3[nH]c(-c4n[nH]c5ccc(-c6cncc(N7CCOCC7)c6)cc45)nc23)CC1 [compound 218] | 63.8%
12 nM | 56 nM | 30 nM | 10.4 nM | Cc1cn(-c2nccc3[nH]c(-c4n[nH]c5ccc(-c6cncc(NC(=O)CC(C)C)c6)cc45)nc23)cn1 [compound 224] | 73.7%
10 nM | 1300 nM |  | > 10000 nM | Cc1cn(-c2cncc3[nH]c(-c4n[nH]c5ccc(-c6cncc(NC(=O)C7CCC7)c6)nc45)nc23)cn1 [compound 227] | 47.2%
4 nM | 106 nM | 300 nM | > 10000 nM | Cc1cn(-c2ccnc3[nH]c(-c4n[nH]c5ccc(-c6cncc(NC(=O)C7CCC7)c6)nc45)nc23)cn1 [compound 228] | 69.1%
2 nM | 44 nM | 100 nM | 45.4 nM | c1cncc(-c2ccc3[nH]nc(-c4nc5c(-c6ccoc6)cncc5[nH]4)c3c2)c1 [compound 229] | 149%
6 nM | 120 nM | 30 nM | 33 nM | O=C(Cc1ccccc1)Nc1cncc(-c2ccc3[nH]nc(-c4nc5c(-c6ccoc6)cncc5[nH]4)c3c2)c1 [compound 234] | 102%
19 nM | 205 nM | 30 nM | 43.5 nM | CC(C)Nc1cncc(-c2ccc3[nH]nc(-c4nc5c(-c6ccoc6)nccc5[nH]4)c3c2)c1 [compound 236] | 90.2%
16 nM | 64 nM | 30 nM | 2 nM | CCC(=O)Nc1cncc(-c2ccc3[nH]nc(-c4nc5c(-c6ccsc6)cncc5[nH]4)c3c2)c1 [compound 244] | 203%
34 nM | 9840 nM | 30 nM | 7.7 nM | CCCC(=O)Nc1cncc(-c2ccc3[nH]nc(-c4nc5c(-c6ccsc6)ccnc5[nH]4)c3c2)c1 [compound 245] | 72.6%
